# In patent US20110183951A1, “Copper (1) Complex” (priority 2006, published 2011):
# Tests used:
# [1] = tested on: rats; experiment: Bioavailability studies on rats (liver and kidney functions, blood picture, lipid profile); assay type: in vivo
# Excerpt: The study on rats included five groups, group 1 control, 2 receiving cu, group.2 pyrazinic, group 3 complex with large dose, & group 5 receiving complex with small dose.
# [2] = tested on: fatigue; experiment: Clinical trials for treatment of fatigue in humans; assay type: in vivo
# [3] = tested on: stem cell differentiation; experiment: In vivo stem cell, CD4 and CD8 counts before and during medication; conditions: before and at regular intervals of medication
# Excerpt: We hypothesized that the drug may have a role in stimulating the stem cells present in the various organs to differentiate. […] In vivo we measured the stem cell count together with CD8 and CD4 cells before, and at regular intervals of medication.
# [4] = tested on: male infertility (sperm count, motility); experiment: Male infertility study, 20 patients; assay type: in vivo, human
# [5] = tested on: rats; experiment: Toxicity of the complex (LD50, mortality within 24 hrs); assay type: in vivo
# Experimental: Seventy two rats (250+/−2.0 g b.wt) were randomly located into 12 groups of 6 rats each.
# Mortality in each group were recorded within 24 hrs.
# [6] = Physical properties: stability of the complex; assay type: physicochemical; conditions: solid, when well-dried
# [7] = tested on: dilated Cardiomyopathy; experiment: Clinical trials in cardiomyopathy; assay type: in vivo, human; conditions: clinically and in ECHO cardiographic measurements
# Excerpt: Improvement is shown both clinically and in the ECHO cardiographic measurements.
# [8] = tested on: muscle weakness (muscle dystrophies, post stroke weakness); experiment: Clinical trials for treatment of weakness of muscles; assay type: in vivo, human
# Excerpt: The complex used in treatment of muscle weakness for different underlying causes (muscle dystrophies post stroke weakness). […] When the patient reaches the optimum dose, onset of improvement in muscle power is observed within hours of drug intake.
# [9] = Physical properties: solubility of the complex; assay type: physicochemical
# Excerpt: Solubility: the complex is insoluble in non-polar solvents, e.g. benzene, carbon tetrachloride, etc., and insoluble in polar solvents: water, methanol, ethanol, acetone, but soluble in these solvents upon heating in inert atmosphere, to prevent oxidation.
molecule,measurement,setting,value
"O=C(O)c1cnccn1 [pyrazinic, pyrazinic acid, reference compound]",Lipid profile,[1],didn't show significant difference
same,liver and kidney functions versus control,[1],no significant difference
[CuCI (pyrazinic acid)2].2H2O [complex],muscle pain,[2]; all types of fatigue,relieved the muscle pain
same,physical activity and productivity,[2]; all types of fatigue,increased the physical activity and productivity
same,"agonizing fatigue in Parkinsonism, myositis, disseminated sclerosis","[2]; human, in vivo",improves markedly
same,CD4/CD8,[3],no disturbance
same,CD4 and CD8 number,[3],increase
same,stem cell count,[3],significant decrease
same,sperm motility,[4]; all cases,significant improvement of motility
same,azospermic patients who got healthy babies,[4]; among the responders,two of them got healthy babies
same,oligospermia cases who got healthy babies,"[4]; human, in vivo",four cases got also healthy babies
same,sperm count in azospermic patients after treatment,"[4]; responders, within 6 weeks of treatment",1.5-3 millions/hpf
same,sperm count in Oligospermia,[4]; within 1 month of treatment,doubling of the count
same,azospermic patients whose count increased,[4]; within 6 weeks of treatment,seven out of nine
same,Lipid profile,[1],didn't show significant difference
same,liver and kidney functions versus control,[1],no significant difference
same,lymphocytic count (complete blood picture),"[1]; large and small dose groups, not exceeding the normal range",increase of lymphocytic count
same,LD50 (intrapperitoneally),[5]; intraperitoneal,128 mg/kg
same,LD50 (oral),[5]; oral,1104.17 mg/kg
same,Stability,[6],sufficiently stable when well-dried
same,"cases improved, dilated cardiomyopathy due to other causes",[7],80%
same,improvement of dilated Cardiomyopathy secondary to Duchenne muscle dystrophy,[7],improved all cases
same,Clinical improvement in DMS patients,"[8]; affected by age, weight and degree of dystrophy",dose dependant
same,onset of improvement in muscle power,"[8]; at optimum dose, after drug intake",within hours
same,Solubility in non-polar solvents,"[9]; e.g. benzene, carbon tetrachloride",insoluble
same,Solubility in polar solvents upon heating,[9]; upon heating in inert atmosphere,soluble
same,Solubility in polar solvents,"[9]; water, methanol, ethanol, acetone",insoluble
